Test results: patent publication US20080317807A1, “STRONTIUM FORTIFIED CALCIUM NANO-AND MICROPARTICLE COMPOSITIONS AND METHODS OF MAKING AND USING THEREOF” (The University of Hong Kong, priority 2007, published 2008)

Columns and labels:
[1] = tested on: fibroblast and pre-osteoblastic enriched cell populations; details: cited from earlier work
[2] = tested on: osteoporotic mice model induced by parathyroid hormone; details: cited from earlier work
rats = details: cited from earlier work
[3] = tested on: osteoblast differentiation; experiment: Osteoblast differentiation by ALP staining and ALP quantification; assay type: cell-based
From the text: It was also observed that the administration of strontium promoted osteoblast differentiation. This was confirmed via alkaline phosphatase (ALP) staining and ALP quantification.

mature osteoblast = details: Strontium concentrations of 10^−3M or higher; cited from earlier work

| SMILES | Increase of DNA synthesis [1] | Bone resorption [2] | Increase of alkaline phosphatase activities, female rats (rats; female rats) [%] | Increase of alkaline phosphatase activities, male rats (rats; male rats) [%] | Plasma IGF-1, males (rats; males, after 104 weeks of treatment) | Matrix mineralization of osteoprogenitors [3] | Osteoblast differentiation (ALP staining and quantification) ([3]; particularly after 14 days) | Increase of collagen and non-collagenic protein synthesis (mature osteoblast) [%] |
| --- | --- | --- | --- | --- | --- | --- | --- | --- |
| N#Cc1c(N(CC(=O)[O-])CC(=O)[O-])sc(C(=O)[O-])c1CC(=O)[O-].[Sr+2].[Sr+2] [strontium ranelate] | three- to four | inhibited bone resorption | – | – | – | – | – | – |
| [Sr+2] [strontium] | – | – | 56 | 53 | Significant increase | increased matrix mineralization | increased osteoblast differentiation | 34 |
